Values of other authors as cited in US20250195551A1 (L4 BIO LLC, priority 2023, published 2025).

Target: 7-aminobutyric acid A (GABAA) receptor
Conditions: interaction with GABAA receptor in humans; cited from earlier work

## ivermectin
  EC50: ~920 nM
